The values that follow come from publication PMC2947314 (Cellular Signalling, 2010).

The target in this assay is Sphingosine kinase 1 (SK1) (Homo sapiens, UniProt Q9NYA1). The experiment in a line: […]S1P formation assay, single concentration […]. The class given is biochemical. The settings on record: read-out: % inhibition at 50 μM.
Chain of Sphingosine kinase 1 (SK1) (Q9NYA1 whole entry): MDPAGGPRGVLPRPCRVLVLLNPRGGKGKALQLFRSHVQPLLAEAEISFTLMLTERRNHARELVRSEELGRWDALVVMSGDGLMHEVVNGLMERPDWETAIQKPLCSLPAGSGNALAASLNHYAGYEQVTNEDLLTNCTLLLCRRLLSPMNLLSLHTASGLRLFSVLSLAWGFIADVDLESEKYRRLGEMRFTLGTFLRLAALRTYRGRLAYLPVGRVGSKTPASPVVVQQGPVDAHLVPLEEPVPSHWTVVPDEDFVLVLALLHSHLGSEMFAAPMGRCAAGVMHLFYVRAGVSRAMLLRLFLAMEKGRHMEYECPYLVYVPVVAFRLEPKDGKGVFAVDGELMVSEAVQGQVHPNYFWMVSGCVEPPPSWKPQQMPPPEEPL

In general, inhibition refers to how much of the control response was suppressed. As to `CCCCCCCCc1ccc(CCC(N)(CO)CO)cc1` [FTY720], the inhibition at 50 µM was roughly 40%.
